# Assay results from patent US20260132132A1, “3A,4,5,6-TETRAHYDRO-1 H-PYRAZOLO[3,4-C]PYRIDIN-7(7AH)-ONE DERIVATIVES AS FACTOR XIIA INHIBITORS” (KALVISTA PHARMACEUTICALS LIMITED, priority 2022, published 2026).
# Target: T1, Human Factor XIIa (hFXIIa) (Homo sapiens, UniProt P00748)
# T1 construct: purchased Enzyme Research Laboratories
# T1 sequence (P00748 373-615 limits assumed): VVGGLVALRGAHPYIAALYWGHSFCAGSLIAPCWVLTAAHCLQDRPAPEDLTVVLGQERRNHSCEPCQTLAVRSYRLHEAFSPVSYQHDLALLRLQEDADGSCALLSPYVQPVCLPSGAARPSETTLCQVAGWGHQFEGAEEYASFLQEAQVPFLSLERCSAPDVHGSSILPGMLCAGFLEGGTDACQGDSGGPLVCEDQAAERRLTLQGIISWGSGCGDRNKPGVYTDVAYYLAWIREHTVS
# T1 sequence (P00748 20-372 partner limits assumed): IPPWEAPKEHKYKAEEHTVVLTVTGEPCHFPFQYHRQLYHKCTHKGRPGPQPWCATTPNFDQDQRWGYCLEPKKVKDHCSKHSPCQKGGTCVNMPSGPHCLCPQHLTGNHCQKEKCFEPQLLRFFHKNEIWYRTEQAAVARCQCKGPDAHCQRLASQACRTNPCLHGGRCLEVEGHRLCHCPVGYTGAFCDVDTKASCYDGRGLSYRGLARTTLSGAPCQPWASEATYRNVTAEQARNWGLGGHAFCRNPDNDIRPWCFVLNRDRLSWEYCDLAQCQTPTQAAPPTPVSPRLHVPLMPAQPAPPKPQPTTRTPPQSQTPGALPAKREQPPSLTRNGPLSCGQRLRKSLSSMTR
# Test: Determination of Human Factor XIIa (hFXIIa) inhibition, fluorogenic substrate IC50 assay
# Format: biochemical
# Conditions: fluorogenic substrate H-DPro-Phe-Arg-AFC at Km, 25° C., read-out: Human FXIIa IC50
# Procedure: Determination of Human Factor XIIa (hFXIIa) inhibition
# The Km for the cleavage of the substrate by hFXIIa was determined by standard transformation of the Michaelis-Menten equation, with subsequent inhibition assays performed at substrate Km concentration.
row,IC50 [nM],Structure (SMILES)
1,100 to 300,"Cn1nccc1CNC(=O)c1nn(-c2cccc(Cl)c2)c2c1CCN(c1ccc3c(c1)CN(CCO)CC3)C2=O [Example 1088, 1-(3-chlorophenyl)-6-(2-(2-hydroxyethyl)-1,2,3,4-tetrahydroisoquinolin-7-yl)-N-((1-methyl-1H-pyrazol-5-yl)methyl)-7-oxo-4,5,6,7-tetrahydro-1H-pyrazolo[3,4-c]pyridine-3-carboxamide]"
2,100 to 300,"CCN1CCc2ccc(N3CCc4c(C(=O)N[C@H]5CCOC5)nn(-c5cccc(Cl)c5)c4C3=O)cc2C1 [Example 1090, (S)-1-(3-chlorophenyl)-6-(2-ethyl-1,2,3,4-tetrahydroisoquinolin-7-yl)-7-oxo-N-(tetrahydrofuran-3-yl)-4,5,6,7-tetrahydro-1H-pyrazolo[3,4-c]pyridine-3-carboxamide]"
3,100 to 300,"CCN1CCc2ccc(N3CCc4c(C(=O)N[C@@H]5CCOC5)nn(-c5cccc(Cl)c5)c4C3=O)cc2C1 [Example 1091, (R)-1-(3-chlorophenyl)-6-(2-ethyl-1,2,3,4-tetrahydroisoquinolin-7-yl)-7-oxo-N-(tetrahydrofuran-3-yl)-4,5,6,7-tetrahydro-1H-pyrazolo[3,4-c]pyridine-3-carboxamide]"
4,100 to 300,"CCN1CCc2ccc(N3CCc4c(C(=O)NC5C6COCC65)nn(-c5cccc(Cl)c5)c4C3=O)cc2C1 (stereo not drawn) [Example 1093, N-(3-oxabicyclo[3.1.0]hexan-6-yl)-1-(3-chlorophenyl)-6-(2-ethyl-1,2,3,4-tetrahydroisoquinolin-7-yl)-7-oxo-4,5,6,7-tetrahydro-1H-pyrazolo[3,4-c]pyridine-3-carboxamide]"
5,1000 to 3000,"COC(=O)CN1CCc2ccc(N3CCc4c(C(=O)NCC5CC5)nn(-c5cccc(Cl)c5)c4C3=O)cc2C1 [Example 1094, methyl 2-(7-(1-(3-chlorophenyl)-3-((cyclopropylmethyl)carbamoyl)-7-oxo-1,4,5,7-tetrahydro-6H-pyrazolo[3,4-c]pyridin-6-yl)-3,4-dihydroisoquinolin-2(1H)-yl)acetate]"
6,1000 to 3000,"O=C(O)CN1CCc2ccc(N3CCc4c(C(=O)NCC5CC5)nn(-c5cccc(Cl)c5)c4C3=O)cc2C1 [Example 1095, 2-(7-(1-(3-chlorophenyl)-3-((cyclopropylmethyl)carbamoyl)-7-oxo-1,4,5,7-tetrahydro-6H-pyrazolo[3,4-c]pyridin-6-yl)-3,4-dihydroisoquinolin-2(1H)-yl)acetic acid]"
7,300 to 1000,"CC(C)(O)CN1CCc2ccc(N3CCc4c(C(=O)NCC5CC5)nn(-c5cccc(Cl)c5)c4C3=O)cc2C1 [Example 1096, 1-(3-chlorophenyl)-N-(cyclopropylmethyl)-6-(2-(2-hydroxy-2-methylpropyl)-1,2,3,4-tetrahydroisoquinolin-7-yl)-7-oxo-4,5,6,7-tetrahydro-1H-pyrazolo[3,4-c]pyridine-3-carboxamide]"
8,1000 to 3000,"O=C(NCC1CC1)c1nn(-c2cccc(Cl)c2)c2c1CCN(c1ccc3c(c1)CN(CC1CC1(F)F)CC3)C2=O (stereo not drawn) [Example 1097, 1-(3-chlorophenyl)-N-(cyclopropylmethyl)-6-(2-((2,2-difluorocyclopropyl)methyl)-1,2,3,4-tetrahydroisoquinolin-7-yl)-7-oxo-4,5,6,7-tetrahydro-1H-pyrazolo[3,4-c]pyridine-3-carboxamide]"
9,100 to 300,"NCCN1CCc2ccc(N3CCc4c(C(=O)NCC5CC5)nn(-c5cccc(Cl)c5)c4C3=O)cc2C1 [Example 1098, 6-(2-(2-aminoethyl)-1,2,3,4-tetrahydroisoquinolin-7-yl)-1-(3-chlorophenyl)-N-(cyclopropylmethyl)-7-oxo-4,5,6,7-tetrahydro-1H-pyrazolo[3,4-c]pyridine-3-carboxamide]"
10,1000 to 3000,"N#CCN1CCc2ccc(N3CCc4c(C(=O)NCC5CC5)nn(-c5cccc(Cl)c5)c4C3=O)cc2C1 [Example 1100, 1-(3-chlorophenyl)-6-(2-(cyanomethyl)-1,2,3,4-tetrahydroisoquinolin-7-yl)-N-(cyclopropylmethyl)-7-oxo-4,5,6,7-tetrahydro-1H-pyrazolo[3,4-c]pyridine-3-carboxamide]"
11,300 to 1000,"C[C@@H](O)CN1CCc2ccc(N3CCc4c(C(=O)NCC5CC5)nn(-c5cccc(Cl)c5)c4C3=O)cc2C1 [Example 1101, (R)-1-(3-chlorophenyl)-N-(cyclopropylmethyl)-6-(2-(2-hydroxypropyl)-1,2,3,4-tetrahydroisoquinolin-7-yl)-7-oxo-4,5,6,7-tetrahydro-1H-pyrazolo[3,4-c]pyridine-3-carboxamide]"
12,300 to 1000,"O=C(NCC1CC1)c1nn(-c2cccc(Cl)c2)c2c1CCN(c1ccc3c(c1)CN(CC1CCCC1)CC3)C2=O [Example 1102, 1-(3-chlorophenyl)-6-(2-(cyclopentylmethyl)-1,2,3,4-tetrahydroisoquinolin-7-yl)-N-(cyclopropylmethyl)-7-oxo-4,5,6,7-tetrahydro-1H-pyrazolo[3,4-c]pyridine-3-carboxamide]"
13,100 to 300,"O=C(NCC1CC1)c1nn(-c2cccc(Cl)c2)c2c1CCN(c1ccc3c(c1)CN(C1CCC1)CC3)C2=O [Example 1103, 1-(3-chlorophenyl)-6-(2-cyclobutyl-1,2,3,4-tetrahydroisoquinolin-7-yl)-N-(cyclopropylmethyl)-7-oxo-4,5,6,7-tetrahydro-1H-pyrazolo[3,4-c]pyridine-3-carboxamide]"
14,300 to 1000,"O=C(NCC1CC1)c1nn(-c2cccc(Cl)c2)c2c1CCN(c1ccc3c(c1)CN(Cc1ccn[nH]1)CC3)C2=O [Example 1104, 6-(2-((1H-pyrazol-5-yl)methyl)-1,2,3,4-tetrahydroisoquinolin-7-yl)-1-(3-chlorophenyl)-N-(cyclopropylmethyl)-7-oxo-4,5,6,7-tetrahydro-1H-pyrazolo[3,4-c]pyridine-3-carboxamide]"
15,100 to 300,"O=C(NCc1ccoc1)c1nn(-c2cccc(Cl)c2)c2c1CCN(c1ccc3c(c1)CN(CCO)CC3)C2=O [Example 1105, 1-(3-chlorophenyl)-N-(furan-3-ylmethyl)-6-(2-(2-hydroxyethyl)-1,2,3,4-tetrahydroisoquinolin-7-yl)-7-oxo-4,5,6,7-tetrahydro-1H-pyrazolo[3,4-c]pyridine-3-carboxamide]"
16,10 to 100,"O=C(NCc1ccccc1)c1nn(-c2cccc(Cl)c2)c2c1CCN(c1ccc3c(c1)CN(CCO)CC3)C2=O [Example 1107, N-benzyl-1-(3-chlorophenyl)-6-(2-(2-hydroxyethyl)-1,2,3,4-tetrahydroisoquinolin-7-yl)-7-oxo-4,5,6,7-tetrahydro-1H-pyrazolo[3,4-c]pyridine-3-carboxamide]"
17,100 to 300,"O=C(N[C@@H]1CCOC1)c1nn(-c2cccc(Cl)c2)c2c1CCN(c1ccc3c(c1)CN(CCO)CC3)C2=O [Example 1108, (R)-1-(3-chlorophenyl)-6-(2-(2-hydroxyethyl)-1,2,3,4-tetrahydroisoquinolin-7-yl)-7-oxo-N-(tetrahydrofuran-3-yl)-4,5,6,7-tetrahydro-1H-pyrazolo[3,4-c]pyridine-3-carboxamide]"
18,300 to 1000,"C[C@@H](CO)N1CCc2ccc(N3CCc4c(C(=O)NCC5CC5)nn(-c5cccc(Cl)c5)c4C3=O)cc2C1 [Example 1113, (S)-1-(3-chlorophenyl)-N-(cyclopropylmethyl)-6-(2-(1-hydroxypropan-2-yl)-1,2,3,4-tetrahydroisoquinolin-7-yl)-7-oxo-4,5,6,7-tetrahydro-1H-pyrazolo[3,4-c]pyridine-3-carboxamide]"
